# ChEMBL document CHEMBL4033729, “Penicillospirone from a marine isolate of Penicillium sp. (SF-5292) with anti-inflammatory activity” (Bioorg Med Chem Lett, 2017)
# Activity calls are given as the source filed them. The calls are words filed in the database; no cut-off is given here.
# Legend:
# Mus musculus [1] = species on record: Mus musculus; assay: Inhibition of LPS-stimulated NFkappaB DNA binding activity in mouse RAW264.7 cells assessed pre-incubated for 3 hrs before LPS-stimulation for 60 mins by ELISA; assay type: cell-based
# RAW264.7 [2] = assay: Anti-inflammatory activity in mouse RAW264.7 cells assessed as reduction in LPS-induced nitric oxide production pre-incubated for 3 hrs before LPS-stimulation for 24 hrs by Griess reagent based ELISA; assay type: functional, cell-based
# BV-2 [3] = assay: Anti-inflammatory activity in mouse BV2 cells assessed as reduction in LPS-induced nitric oxide production pre-incubated for 3 hrs before LPS-stimulation for 24 hrs by Griess reagent based ELISA; assay type: functional, cell-based
# RAW264.7 [4] = assay: Anti-inflammatory activity in mouse RAW264.7 cells assessed as reduction in LPS-induced PGE2 production pre-incubated for 3 hrs before LPS-stimulation for 24 hrs; assay type: functional, cell-based
# BV-2 [5] = assay: Anti-inflammatory activity in mouse BV2 cells assessed as reduction in LPS-induced PGE2 production pre-incubated for 3 hrs before LPS-stimulation for 24 hrs; assay type: functional, cell-based
# RAW264.7 [6] = assay: Cytotoxicity in mouse RAW264.7 cells at 10 to 80 uM by MTT assay; assay type: cell-based; details: raw264.7, 80 µM
# BV-2 [7] = assay: Cytotoxicity in mouse BV2 cells at 10 to 80 uM by MTT assay; assay type: cell-based; details: bv-2, 80 µM
# RAW264.7 [8] = assay: Inhibition of LPS-stimulated iNOS protein expression in mouse RAW264.7 cells pre-incubated for 3 hrs before LPS-stimulation for 24 hrs by Western blot method; assay type: functional, cell-based
# RAW264.7 [9] = assay: Inhibition of LPS-stimulated COX2 protein expression in mouse RAW264.7 cells pre-incubated for 3 hrs before LPS-stimulation for 24 hrs by Western blot method; assay type: functional, cell-based
# BV-2 [10] = assay: Inhibition of LPS-stimulated iNOS protein expression in mouse BV2 cells pre-incubated for 3 hrs before LPS-stimulation for 24 hrs by Western blot method; assay type: functional, cell-based
# BV-2 [11] = assay: Inhibition of LPS-stimulated COX2 protein expression in mouse BV2 cells pre-incubated for 3 hrs before LPS-stimulation for 24 hrs by Western blot method; assay type: functional, cell-based
# Mus musculus [12] = species on record: Mus musculus; assay: Inhibition of LPS-stimulated NFkappaB signalling activation in mouse RAW264.7 cells assessed as reduction in IkappaB phosphorylation pre-incubated for 3 hrs before LPS-stimulation for 60 mins by Western blot method; assay type: cell-based
# Mus musculus [13] = species on record: Mus musculus; assay: Inhibition of LPS-stimulated NFkappaB signalling activation in mouse BV2 cells assessed as reduction in IkappaB phosphorylation pre-incubated for 3 hrs before LPS-stimulation for 60 mins by Western blot method; assay type: cell-based
# Mus musculus [14] = species on record: Mus musculus; assay: Inhibition of LPS-stimulated NFkappaB p65/p50 nuclear translocation in mouse RAW264.7 cells assessed as increase in cytosolic p65/p50 protein level at 10 to 40 uM pre-incubated for 3 hrs before LPS-stimulation for 60 mins by Western blot method; assay type: cell-based
# Mus musculus [15] = species on record: Mus musculus; assay: Inhibition of LPS-stimulated NFkappaB p65/p50 nuclear translocation in mouse BV2 cells assessed as increase in cytosolic p65/p50 protein level at 10 to 40 uM pre-incubated for 3 hrs before LPS-stimulation for 60 mins by Western blot method; assay type: cell-based
# Mus musculus [16] = species on record: Mus musculus; assay: Inhibition of LPS-stimulated NFkappaB DNA binding activity in mouse BV2 cells assessed pre-incubated for 3 hrs before LPS-stimulation for 60 mins by ELISA; assay type: cell-based
# RAW264.7 [17] = assay: Anti-inflammatory activity in mouse RAW264.7 cells assessed as reduction in LPS-induced TNFalpha mRNA expression pre-incubated for 3 hrs before LPS-stimulation for 12 hrs by RT-qPCR method; assay type: functional, cell-based
# RAW264.7 [18] = assay: Anti-inflammatory activity in mouse RAW264.7 cells assessed as reduction in LPS-induced IL-1beta mRNA expression pre-incubated for 3 hrs before LPS-stimulation for 12 hrs by RT-qPCR method; assay type: functional, cell-based
# RAW264.7 [19] = assay: Anti-inflammatory activity in mouse RAW264.7 cells assessed as reduction in LPS-induced IL6 mRNA expression pre-incubated for 3 hrs before LPS-stimulation for 12 hrs by RT-qPCR method; assay type: functional, cell-based
# RAW264.7 [20] = assay: Anti-inflammatory activity in mouse RAW264.7 cells assessed as reduction in LPS-induced IL12 mRNA expression pre-incubated for 3 hrs before LPS-stimulation for 12 hrs by RT-qPCR method; assay type: functional, cell-based
# BV-2 [21] = assay: Anti-inflammatory activity in mouse BV2 cells assessed as reduction in LPS-induced TNFalpha mRNA expression pre-incubated for 3 hrs before LPS-stimulation for 12 hrs by RT-qPCR method; assay type: functional, cell-based
# BV-2 [22] = assay: Anti-inflammatory activity in mouse BV2 cells assessed as reduction in LPS-induced IL-1beta mRNA expression pre-incubated for 3 hrs before LPS-stimulation for 12 hrs by RT-qPCR method; assay type: functional, cell-based
# BV-2 [23] = assay: Anti-inflammatory activity in mouse BV2 cells assessed as reduction in LPS-induced IL6 mRNA expression pre-incubated for 3 hrs before LPS-stimulation for 12 hrs by RT-qPCR method; assay type: functional, cell-based
# BV-2 [24] = assay: Anti-inflammatory activity in mouse BV2 cells assessed as reduction in LPS-induced IL12 mRNA expression pre-incubated for 3 hrs before LPS-stimulation for 12 hrs by RT-qPCR method; assay type: functional, cell-based
smiles,measurement,setting,value
C/C=C/[C@@H]1C=CC(=O)[C@H](O)[C@]12C(=O)O[C@H](C)[C@@H]2O,inhibition,Mus musculus [1],Dose-dependent effect
same,IC50,RAW264.7 [2],23.5 µM
same,inhibition,RAW264.7 [2],Dose-dependent effect
same,IC50,BV-2 [3],21.9 µM
same,inhibition,BV-2 [3],Dose-dependent effect
same,IC50,RAW264.7 [4],22.8 µM
same,IC50,BV-2 [5],27.6 µM
same,Activity,RAW264.7 [6],Non-Toxic
same,Activity,BV-2 [7],Non-Toxic
same,inhibition,RAW264.7 [8],Dose-dependent effect
same,inhibition,RAW264.7 [9],Dose-dependent effect
same,inhibition,BV-2 [10],Dose-dependent effect
same,inhibition,BV-2 [11],Dose-dependent effect
same,inhibition,Mus musculus [12],Dose-dependent effect
same,inhibition,Mus musculus [13],Dose-dependent effect
same,inhibition,Mus musculus [14],Active
same,inhibition,Mus musculus [15],Active
same,inhibition,Mus musculus [16],Dose-dependent effect
same,inhibition,RAW264.7 [17],Dose-dependent effect
same,inhibition,RAW264.7 [18],Dose-dependent effect
same,inhibition,RAW264.7 [19],Dose-dependent effect
same,inhibition,RAW264.7 [20],Dose-dependent effect
same,inhibition,BV-2 [21],Dose-dependent effect
same,inhibition,BV-2 [22],Dose-dependent effect
same,inhibition,BV-2 [23],Dose-dependent effect
same,inhibition,BV-2 [24],Dose-dependent effect
